Experimental data published in patent US8377967B2, “Piperidine derivative” (Nippon Zoki Pharmaceutical Co., Ltd., priority 2008, dated 2013).

Columns and labels:
cerebral H1 receptor = biological target: T1, cerebral H1 receptor (Mus musculus, UniProt P70174); assay: Murine cerebral H1 receptor occupying content (ex vivo); format: in vivo; conditions: for ED50: ICR male mouse, oral administration, brain excised after 1 hour, 3H-pyrilamine binding in brain homogenate, larger = lower brain transfer, read-out: ID50 (the source's name); for ID50 (mg/kg)/ ED50 (mg/kg): ID50 of cerebral receptor binding test (Table 20) divided by ED50 of vascular hyperpermeability test (Table 19)
T1 construct: the entire brain, except for cerebellum and medulla oblongatae, was rapidly excised; from tissue; host or cells: brain homogenate (without cerebellum and medulla oblongata) of orally dosed ICR male mice
Protocol: A 6-week-old ICR male mouse was previously fed for one week or more by allowing the mouse to take a solid feed and tap water ad libitum, under the environment setting of a temperature of 22° C., humidity of 55% and an artificial illumination of 12 hours a day, and the mouse was fasted overnight to be used for the experiment. A substance to be tested was dissolved with water for injection or suspended in 0.5% carboxymethyl cellulose solution, and the solution or suspension was orally administered to the mouse (dose volume: 0.1 mL/10 g body weight). After 1 hour from the oral administration, the mouse was decapitated, and the entire brain, except for cerebellum and medulla oblongatae, was rapidly excised. The excised brain tissue was homogenized with Polytron (manufactured by Kinematica) in an ice-cooled 50 mmol/L phosphate buffered saline (pH 7.4, 100 mg/1.9 mL).
To a test tube for reaction (TPX-Tube) were added 180 μL of the brain homogenate, and 10 μL of ^3H-pyrilamine solution (final concentration: 2 nmol/L) and 10 μL of a non-labeled pyrilamine solution (final concentration: 200 μmol/L) or a 50 mmol/L phosphate buffered saline, and the mixture was incubated at room temperature for 45 minutes, and 2.0 mL of an ice-cooled, 50 mmol/L phosphate buffered saline was then added thereto to stop the reaction. The reaction mixture was filtered with a GF/B filter (manufactured by […]), and the […] was placed in a vial and dried overnight at 60 degrees. After drying, 10 mL of a scintillator (AL-1, toluene-based, manufactured by DOJINDO LABORATORIES) was added to the product, and the disintegration per minute (dpm) was measured with a liquid scintillation counter (manufactured by Packard, U.S.A., TRI-CARB 2700TR) (5 minutes/vial).

[1] = tested on: histamine-induced vascular hyperpermeability reaction; assay: Rat histamine-induced vascular hyperpermeability reaction (in vivo antihistamine action); conditions: SD male rat, oral administration 1 hour before intracutaneous histamine, leaked Evans Blue pigment
[2] = biological target: human histamine H1 receptor (Homo sapiens, UniProt P35367); assay: In vitro human histamine H1 receptor binding experiment ([3H]pyrilamine); conditions: HEK293A cells stably expressing human histamine H1 receptor, [3H]pyrilamine 3 nmol/L, room temperature 60 minutes
In short: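 HEK293A cells stably expressing human H1 receptor (3×10^5 cells/well) incubated 60 min at room temperature with test substance and 3 nmol/L [3H]pyrilamine in 50 mmol/L Tris-HCl pH 7.5, 0.1% BSA. Filtration and scintillation counting; nonspecific binding with 30 μmol/L pyrilamine.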

T1 sequence (P70174 whole entry): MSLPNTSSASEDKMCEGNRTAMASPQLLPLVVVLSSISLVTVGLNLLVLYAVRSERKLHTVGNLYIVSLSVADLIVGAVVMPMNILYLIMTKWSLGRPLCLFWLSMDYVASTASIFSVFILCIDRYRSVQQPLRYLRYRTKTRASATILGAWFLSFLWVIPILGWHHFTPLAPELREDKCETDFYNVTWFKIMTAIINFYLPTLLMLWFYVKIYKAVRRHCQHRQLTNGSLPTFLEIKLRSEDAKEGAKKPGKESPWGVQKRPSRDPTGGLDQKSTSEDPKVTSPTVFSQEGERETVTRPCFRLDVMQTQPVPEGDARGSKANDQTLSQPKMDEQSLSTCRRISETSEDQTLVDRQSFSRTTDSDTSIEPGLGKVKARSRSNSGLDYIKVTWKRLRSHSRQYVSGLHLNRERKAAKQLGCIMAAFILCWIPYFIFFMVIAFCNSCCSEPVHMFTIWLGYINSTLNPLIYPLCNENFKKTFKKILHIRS
Sequence of human histamine H1 receptor (P35367 whole entry): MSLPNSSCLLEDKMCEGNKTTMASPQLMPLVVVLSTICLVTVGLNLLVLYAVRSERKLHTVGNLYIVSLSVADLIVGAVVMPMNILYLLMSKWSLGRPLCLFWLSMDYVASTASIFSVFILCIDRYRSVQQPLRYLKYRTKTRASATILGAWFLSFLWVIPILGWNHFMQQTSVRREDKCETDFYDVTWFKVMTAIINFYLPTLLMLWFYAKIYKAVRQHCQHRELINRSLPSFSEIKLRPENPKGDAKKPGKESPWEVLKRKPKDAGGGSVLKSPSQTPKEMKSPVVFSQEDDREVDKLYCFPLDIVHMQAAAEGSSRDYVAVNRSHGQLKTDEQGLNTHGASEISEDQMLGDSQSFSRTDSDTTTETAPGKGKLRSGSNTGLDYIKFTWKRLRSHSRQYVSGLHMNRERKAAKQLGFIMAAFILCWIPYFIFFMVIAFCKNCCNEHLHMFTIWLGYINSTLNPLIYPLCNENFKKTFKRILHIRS

| Compound | ED50 (cerebral H1 receptor) [mg/kg] | ID50 (mg/kg)/ ED50 (mg/kg) (cerebral H1 receptor) | ED50 [1] [mg/kg] | IC50 [2] [nM] |
| --- | --- | --- | --- | --- |
| CN1CCC(=C2c3cc(SCC(=O)O)ccc3OCc3ccsc32)CC1 [Compound 172, [4-(1-Methylpiperidin-4-ylidene)-4,10-dihydro-9-oxa-3-thiabenzo[f]azulen-6-ylsulfanyl]acetic acid] | 28 | 239.3 | 0.117 | 22.2 |
| CN1CCC(=C2c3ccccc3OCc3cc(CC(=O)O)sc32)CC1.Cl [Compound 58, [4-(1-Methylpiperidin-4-ylidene)-4,10-dihydro-9-oxa-3-thiabenzo[f]azulen-2-yl]acetic acid hydrochloride] | 205 | 263.1 | 0.78 | 69.3 |
| COC(=O)CSc1ccc2c(c1)C(=C1CCNCC1)c1sccc1CO2.Cl [Compound 197, Methyl (4-piperidin-4-ylidene-4,10-dihydro-9-oxa-3-thiabenzo[f]azulen-6-ylsulfanyl)acetate hydrochloride] | > 200 | >1052.6 | 0.19 | 80.9 |
| COC(=O)Cc1ccc2c(c1)C(=C1CCN(CCC(C)=O)CC1)c1sccc1CO2.Cl [Compound 191, Methyl {4-[1-(3-oxobutyl)piperidin-4-ylidene]-4,10-dihydro-9-oxa-3-thiabenzo[f]azulen-6-yl}acetate hydrochloride] | 79.2 | 132.7 | 0.597 | 4.72 |
| CCCN1CCC(=C2c3cc(CC(=O)O)ccc3OCc3ccsc32)CC1 [Compound 130, [4-(1-Propylpiperidin-4-ylidene)-4,10-dihydro-9-oxa-3-thiabenzo[f]azulen-6-yl]acetic acid] | 8 | 181.8 | 0.044 | 78.4 |
| COC(=O)Cc1ccc2c(c1)C(=C1CCN(CCO)CC1)c1sccc1CO2.Cl [Compound 118, Methyl {4-[1-(2-hydroxyethyl)piperidin-4-ylidene]-4,10-dihydro-9-oxa-3-thiabenzo[f]azulen-6-yl}acetate hydrochloride] | 24.3 | 50.6 | 0.48 | 23.6 |
| CN1CCC(=C2c3cc(CCCC(=O)O)ccc3OCc3ccsc32)CC1 [Compound 124, 4-[4-(1-Methylpiperidin-4-ylidene)-4,10-dihydro-9-oxa-3-thiabenzo[f]azulen-6-yl]butyric acid] | 3.2 | 355.6 | 0.009 | 46.7 |
| CCCN1CCC(=C2c3cc(CC(=O)OC)ccc3OCc3ccsc32)CC1.Cl [Compound 129, Methyl[4-(1-propylpiperidin-4-ylidene)-4,10-dihydro-9-oxa-3-thiabenzo[f]azulen-6-yl]acetate hydrochloride] | 40.5 | 460.2 | 0.088 | 22.7 |
| COC(=O)Cc1ccc2c(c1)C(=C1CCN(CCSC)CC1)c1sccc1CO2.Cl [Compound 200, Methyl {4-[1-(2-methylsulfanylethyl)piperidin-4-ylidene]-4,10-dihydro-9-oxa-3-thiabenzo[f]azulen-6-yl}acetate hydrochloride] | 53.4 | 178.0 | ~0.3 | 7.83 |
| COC(=O)Cc1ccc2c(c1)C(=C1CCN(CCCO)CC1)c1sccc1CO2.Cl [Compound 138, Methyl {4-[1-(3-hydroxypropyl)piperidin-4-ylidene]-4,10-dihydro-9-oxa-3-thiabenzo[f]azulen-6-yl}acetate hydrochloride] | 65.4 | 139.1 | 0.47 | 26 |
| CCN1CCC(=C2c3cc(CC(=O)OC)ccc3OCc3ccsc32)CC1.Cl [Compound 127, Methyl[4-(1-ethylpiperidin-4-ylidene)-4,10-dihydro-9-oxa-3-thiabenzo[f]azulen-6-yl]acetate hydrochloride] | 9.84 | 98.4 | ~0.1 | 8.2 |
